Results published in patent publication US10994015B2, “EGFR proteolysis targeting chimeric molecules and associated methods of use” (Arvinas Operations, Inc., priority 2016, dated 2021).

What was measured:
EGFR Exon 20 ASV (HeLa*) = EGFR Exon 20 ASV (HeLa*) (Homo sapiens (Human), UniProt P00533, DUP767-769); test: EGFR protein degradation assay (Western blot); format: cell-based; details: 72 hours, 300 nM to 10 nM
[1] = molecular target: EGFR-wt (MDA-MB-231 or MCF7 or A549 or OVCAR8) (Homo sapiens (Human), UniProt P00533); test: EGFR protein degradation assay (Western blot); format: cell-based; details: 72 hours, 300 nM to 10 nM
Procedure, shortened: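 EGFR degradation was assessed by Western blot. Cells expressing the appropriate EGFR were seeded in 6-well plates (300,000 cells per well) and adhered overnight. Media was removed, cells were washed with cold phosphate-buffered saline, scraped into 400 μl Cell Signaling lysis buffer plus protease inhibitor cocktail, and spun once at 10 000 rpm for 10 minutes. After BCA quantification, loading buffer and reducing agent were added. Gels loaded with 10 μg protein ran at 165V for 2 hours, and bands were visualized by chemiluminescence.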

EGFR Δ19/746/750 = EGFR Δ19/746/750 (Homo sapiens (Human), UniProt P00533, DEL746-750); test: TR-FRET assay for ERBB kinases; format: biochemical; details: geometric mean if measured more than once
Sequence of EGFR Δ19/746/750 (P00533 other isoform, or with tags, fused parts or gaps del 1-694/del 746-750 limits assumed): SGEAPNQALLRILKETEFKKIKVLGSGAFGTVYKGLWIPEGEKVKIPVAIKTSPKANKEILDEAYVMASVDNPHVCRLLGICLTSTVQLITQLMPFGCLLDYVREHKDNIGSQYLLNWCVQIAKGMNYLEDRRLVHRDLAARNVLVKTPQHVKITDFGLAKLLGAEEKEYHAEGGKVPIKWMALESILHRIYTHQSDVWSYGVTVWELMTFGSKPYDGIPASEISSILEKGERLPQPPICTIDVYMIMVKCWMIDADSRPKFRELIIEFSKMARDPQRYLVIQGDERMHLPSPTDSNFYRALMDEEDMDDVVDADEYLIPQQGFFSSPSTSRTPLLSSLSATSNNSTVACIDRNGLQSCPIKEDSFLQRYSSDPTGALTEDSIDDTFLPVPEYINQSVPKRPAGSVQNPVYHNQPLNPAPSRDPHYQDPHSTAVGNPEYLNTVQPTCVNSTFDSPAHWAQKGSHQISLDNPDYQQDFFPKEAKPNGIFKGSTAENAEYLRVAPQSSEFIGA
Procedure, shortened: (§1)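 Phosphorylation of fluorescein-labeled poly-GluTyr read as TR-FRET using Tb-pY20 antibody after EDTA stop, with 340 nm excitation. Kinase reaction ran 10 min at room temperature following 10 min compound pre-incubation; substrate mix held 3 mM ATP and 30 µM peptide before addition. Buffer was HEPES pH 7.5.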

EGFR Δ19/746/750 T790M = EGFR Δ19/746/750 T790M (Homo sapiens (Human), UniProt P00533, DEL746-750/T790M); test: TR-FRET assay for ERBB kinases; format: biochemical; details: geometric mean if measured more than once
Sequence of EGFR Δ19/746/750 T790M (P00533 other isoform, or with tags, fused parts or gaps T790M/del 1-694/del 746-750 limits assumed): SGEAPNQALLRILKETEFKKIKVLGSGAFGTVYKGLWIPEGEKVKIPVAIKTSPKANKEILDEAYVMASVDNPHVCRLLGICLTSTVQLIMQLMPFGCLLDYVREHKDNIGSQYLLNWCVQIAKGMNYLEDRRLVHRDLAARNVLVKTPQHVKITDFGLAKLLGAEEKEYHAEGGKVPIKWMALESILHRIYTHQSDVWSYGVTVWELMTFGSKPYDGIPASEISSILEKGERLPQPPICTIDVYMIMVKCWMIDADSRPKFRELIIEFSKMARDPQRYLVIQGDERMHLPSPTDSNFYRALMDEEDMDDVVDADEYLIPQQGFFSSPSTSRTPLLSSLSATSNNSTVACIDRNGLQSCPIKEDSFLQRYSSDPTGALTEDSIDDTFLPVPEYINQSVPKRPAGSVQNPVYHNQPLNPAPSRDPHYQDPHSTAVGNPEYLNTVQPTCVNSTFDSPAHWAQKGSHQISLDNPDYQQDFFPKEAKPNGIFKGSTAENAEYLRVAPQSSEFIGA
Procedure, shortened: as §1

EGFR L858R = EGFR L858R (Homo sapiens (Human), UniProt P00533, L858R); test: TR-FRET assay for ERBB kinases; format: biochemical; details: geometric mean if measured more than once
Procedure, shortened: as §1

EGFR Exon20NPG = EGFR Exon20NPG (Homo sapiens (Human), UniProt P00533, INS770NPG); test: TR-FRET assay for ERBB kinases; format: biochemical; details: geometric mean if measured more than once
Procedure, shortened: as §1

HER2WT = HER2WT (Homo sapiens (Human), UniProt P04626); test: TR-FRET assay for ERBB kinases; format: biochemical; details: geometric mean if measured more than once
Sequence of HER2WT (P04626 23-1255): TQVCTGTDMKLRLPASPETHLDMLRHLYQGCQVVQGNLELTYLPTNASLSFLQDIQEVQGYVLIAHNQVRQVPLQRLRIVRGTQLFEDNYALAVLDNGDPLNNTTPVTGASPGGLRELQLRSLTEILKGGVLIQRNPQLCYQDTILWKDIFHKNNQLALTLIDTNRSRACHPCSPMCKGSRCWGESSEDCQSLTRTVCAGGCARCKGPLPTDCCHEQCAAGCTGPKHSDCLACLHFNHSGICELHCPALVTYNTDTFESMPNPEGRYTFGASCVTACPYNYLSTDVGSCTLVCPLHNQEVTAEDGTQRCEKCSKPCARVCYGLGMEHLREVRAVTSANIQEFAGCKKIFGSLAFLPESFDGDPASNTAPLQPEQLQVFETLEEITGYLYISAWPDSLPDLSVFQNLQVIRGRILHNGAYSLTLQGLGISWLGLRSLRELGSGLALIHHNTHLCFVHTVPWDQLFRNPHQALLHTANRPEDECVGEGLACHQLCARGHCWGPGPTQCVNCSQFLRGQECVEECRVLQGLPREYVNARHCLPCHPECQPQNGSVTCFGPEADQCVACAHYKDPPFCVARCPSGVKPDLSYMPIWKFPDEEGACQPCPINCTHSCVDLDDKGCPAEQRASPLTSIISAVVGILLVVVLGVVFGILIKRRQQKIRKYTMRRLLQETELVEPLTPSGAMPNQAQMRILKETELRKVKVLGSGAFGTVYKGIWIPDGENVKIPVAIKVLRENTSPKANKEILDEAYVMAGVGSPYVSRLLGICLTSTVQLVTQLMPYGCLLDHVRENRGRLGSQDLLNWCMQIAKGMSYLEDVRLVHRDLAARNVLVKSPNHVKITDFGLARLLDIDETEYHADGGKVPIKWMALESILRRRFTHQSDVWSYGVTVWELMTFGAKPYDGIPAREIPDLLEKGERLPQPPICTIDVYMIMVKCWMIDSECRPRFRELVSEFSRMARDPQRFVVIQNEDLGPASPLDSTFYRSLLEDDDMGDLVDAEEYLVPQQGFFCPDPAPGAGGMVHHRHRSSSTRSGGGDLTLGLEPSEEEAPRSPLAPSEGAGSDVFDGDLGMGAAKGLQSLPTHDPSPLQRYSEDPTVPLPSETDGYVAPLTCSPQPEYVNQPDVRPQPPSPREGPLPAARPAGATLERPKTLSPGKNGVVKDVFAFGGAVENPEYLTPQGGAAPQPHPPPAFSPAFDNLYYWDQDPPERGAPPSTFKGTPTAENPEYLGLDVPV
Procedure, shortened: as §1

EGFR WT = EGFR WT (Homo sapiens (Human), UniProt P00533); test: TR-FRET assay for ERBB kinases; format: biochemical; details: geometric mean if measured more than once
Procedure, shortened: (§2)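 Kinase + cmpd preinc 10 min; start with mix of 3 mM ATP / 30 uM fluorescein poly-GluTyr (mix concs); 10 min RT; stop with 5 nM Tb-pY20 Ab / 40 mM EDTA. Buffer 50 mM HEPES pH 7.5, 10 mM MgCl2.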

EGFR L858R/T790M/C797S = EGFR L858R/T790M/C797S (Homo sapiens (Human), UniProt P00533, C797S/L858R/T790M); test: TR-FRET assay for ERBB kinases; format: biochemical; details: geometric mean if measured more than once
Procedure, shortened: as §2

EGFR L858R/T790M = EGFR L858R/T790M (Homo sapiens (Human), UniProt P00533, L858R/T790M); test: TR-FRET assay for ERBB kinases; format: biochemical; details: geometric mean if measured more than once
Sequence of EGFR L858R/T790M (P00533 25-1210 T790M/L858R): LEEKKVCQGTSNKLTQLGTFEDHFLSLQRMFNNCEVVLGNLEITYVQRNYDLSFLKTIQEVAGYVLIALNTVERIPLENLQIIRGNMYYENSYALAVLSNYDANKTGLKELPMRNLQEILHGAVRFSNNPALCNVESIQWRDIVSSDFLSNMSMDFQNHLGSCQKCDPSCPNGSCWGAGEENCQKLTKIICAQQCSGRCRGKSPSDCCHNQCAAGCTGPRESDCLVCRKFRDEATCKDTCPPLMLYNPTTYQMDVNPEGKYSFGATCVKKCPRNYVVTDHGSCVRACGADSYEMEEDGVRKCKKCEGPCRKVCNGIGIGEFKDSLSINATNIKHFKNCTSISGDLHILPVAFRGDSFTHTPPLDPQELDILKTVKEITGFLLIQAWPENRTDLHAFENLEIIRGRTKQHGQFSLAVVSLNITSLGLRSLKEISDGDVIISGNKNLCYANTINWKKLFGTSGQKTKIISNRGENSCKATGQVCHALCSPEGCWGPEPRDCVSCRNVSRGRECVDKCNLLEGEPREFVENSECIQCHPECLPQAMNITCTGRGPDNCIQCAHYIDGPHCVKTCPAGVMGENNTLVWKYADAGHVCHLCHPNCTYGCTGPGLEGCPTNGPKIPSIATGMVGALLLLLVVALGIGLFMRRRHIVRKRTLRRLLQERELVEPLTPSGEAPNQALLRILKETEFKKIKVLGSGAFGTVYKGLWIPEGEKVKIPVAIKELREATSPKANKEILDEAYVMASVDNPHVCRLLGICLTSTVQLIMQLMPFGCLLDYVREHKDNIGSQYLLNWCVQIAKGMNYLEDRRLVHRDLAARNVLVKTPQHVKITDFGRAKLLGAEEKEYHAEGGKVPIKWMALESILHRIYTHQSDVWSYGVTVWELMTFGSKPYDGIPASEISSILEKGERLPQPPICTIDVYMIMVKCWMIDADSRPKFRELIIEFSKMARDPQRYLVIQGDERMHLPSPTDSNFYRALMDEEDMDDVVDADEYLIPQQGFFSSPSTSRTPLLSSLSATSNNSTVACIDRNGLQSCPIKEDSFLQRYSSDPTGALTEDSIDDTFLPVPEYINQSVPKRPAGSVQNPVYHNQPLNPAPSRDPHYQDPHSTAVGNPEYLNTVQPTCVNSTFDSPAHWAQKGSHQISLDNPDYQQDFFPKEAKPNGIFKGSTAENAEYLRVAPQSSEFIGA
Procedure, shortened: as §2

[2] = molecular target: EGFR L858R/T790M double mutant (H1975) (Homo sapiens (Human), UniProt P00533, L858R/T790M); test: EGFR protein degradation assay (Western blot); format: cell-based; details: 72 hours, 300 nM to 10 nM
Sequence of EGFR L858R/T790M double mutant (H1975) (P00533 25-1210 T790M/L858R): as above
Procedure, shortened: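 EGFR protein levels were measured by immunoblotting. Lysate protein was quantified by BCA, and 10 μg per sample was separated by SDS/PAGE at 165V for 2 hours and transferred to PVDF. Membranes were blocked in TBS-T with 5% milk for 1 hour, probed overnight at 4° C with EGFR and tubulin antibodies, then secondary antibody for 1 hour, and detected by ECL on a Chemidoc.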

HER3 = HER3 (Homo sapiens (Human), UniProt P21860); test: TR-FRET assay for ERBB kinases; format: biochemical; details: geometric mean if measured more than once
[3] = molecular target: EGFR L858R/T790M/C797S triple mutant (H520*) (Homo sapiens (Human), UniProt P00533, C797S/L858R/T790M); test: EGFR protein degradation assay (Western blot); format: cell-based; details: 72 hours, 300 nM to 10 nM
Procedure, shortened: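 EGFR loss in the triple-mutant line measured by immunoblot: clarified lysates normalised by BCA, run on 4-12% Bis-Tris gels, blotted to PVDF, probed with HRP anti-rabbit secondary. Before lysis, cells were dosed from 1, 0.3, 0.1, 0.03 and 0.01 mM DMSO stocks (not final concentrations) after overnight culture at 37° C.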

Compound	EGFR protein remaining, EGFR Exon 20 ASV (EGFR Exon 20 ASV (HeLa*))	EGFR protein remaining, EGFR-wt [1]	IC50 (EGFR Δ19/746/750)	IC50 (EGFR Δ19/746/750 T790M)	IC50 (EGFR L858R)	IC50 (EGFR Exon20NPG)	IC50 (HER2WT)	IC50 (EGFR WT)	IC50 (EGFR L858R/T790M/C797S)	IC50 (EGFR L858R/T790M)	EGFR protein remaining, EGFR L858R/T790M double mutant [2]	IC50 (HER3)	EGFR protein remaining, EGFR L858R/T790M/C797S triple mutant [3]
O=C1CCC(N2C(=O)c3cccc(NCCOCCc4ccc(-c5cc6c(NCc7ccccc7Cl)ncnc6[nH]5)cc4)c3C2=O)C(=O)N1 (centres unmarked) [compound 11]	C (>80% EGFR protein remaining after 72 hours of incubation with the test compound at a concentration of 300 nM)	C (>80% EGFR protein remaining after 72 hours of incubation with the test compound at a concentration of 300 nM)	0.14 nM	17000 nM	0.4 nM	49 nM	190 nM	8.4 nM	3500 nM	> 30000 nM	–	–	–
Cc1ncsc1-c1ccc(CNC(=O)[C@@H]2C[C@@H](O)CN2C(=O)[C@@H](NC(=O)COCCOCCOc2ccc(-c3cc4c(NCc5ccccc5Cl)ncnc4[nH]3)cc2)C(C)(C)C)cc1 [compound 15]	C (>80% EGFR protein remaining after 72 hours of incubation with the test compound at a concentration of 300 nM)	C (>80% EGFR protein remaining after 72 hours of incubation with the test compound at a concentration of 300 nM)	140 nM	> 30000 nM	200 nM	4700 nM	19000 nM	690 nM	17000 nM	> 30000 nM	–	–	–
Cc1ncsc1-c1ccc(CNC(=O)[C@@H]2C[C@@H](O)CN2C(=O)[C@@H](NC(=O)COCCOCCOc2ccc(-c3ccc4ncnc(Nc5ccc(OCc6cccc(F)c6)c(Cl)c5)c4c3)cc2)C(C)(C)C)cc1 [Example 97, (2S,4R)-1-((S)-2-(2-(2-(2-(4-(4-((3-Chloro-4-((3-fluorobenzyl)oxy)phenyl)amino)quinazolin-6-yl)phenoxy)ethoxy)ethoxy)acetamido)-3,3-dimethylbutanoyl)-4-hydroxy-N-(4-(4-methylthiazol-5-yl)benzyl)pyrrolidine-2-carboxamide]	A (≤50% EGFR protein remaining after 72 hours of incubation with the test compound at a concentration between 300 nM and 10 nM)	A (≤50% EGFR protein remaining after 72 hours of incubation with the test compound at a concentration between 300 nM and 10 nM)	–	–	–	> 30000 nM	–	1500 nM	> 30000 nM	> 30000 nM	B (≤80% and >50% EGFR protein remaining after 72 hours of incubation with the test compound at a concentration between 300 nM and 10 nM)	29000 nM	–
O=C1CCC(N2C(=O)c3cccc(NCCOCCOc4ccc(-c5cc6c(NCc7ccccc7Cl)ncnc6[nH]5)cc4)c3C2=O)C(=O)N1 (centres unmarked) [compound 13]	C (>80% EGFR protein remaining after 72 hours of incubation with the test compound at a concentration of 300 nM)	C (>80% EGFR protein remaining after 72 hours of incubation with the test compound at a concentration of 300 nM)	37 nM	> 30000 nM	130 nM	5300 nM	> 30000 nM	760 nM	> 30000 nM	> 30000 nM	–	–	–
O=C1CCC(N2C(=O)c3cccc(NCCOCCOCCN4CCN(Cc5ccc(-c6cc7c(NCc8ccccc8Cl)ncnc7[nH]6)cc5)CC4)c3C2=O)C(=O)N1 (centres unmarked) [compound 9]	C (>80% EGFR protein remaining after 72 hours of incubation with the test compound at a concentration of 300 nM)	C (>80% EGFR protein remaining after 72 hours of incubation with the test compound at a concentration of 300 nM)	1.9 nM	3900 nM	4.9 nM	260 nM	590 nM	27 nM	3100 nM	6800 nM	–	–	–
COC1(CCN2CCN(c3ccc4c(c3)C(=O)N(C3CCC(=O)NC3=O)C4=O)CC2)CCN(c2nccc(Nc3cc4c(cn3)nc(C)n4C(C)C)n2)CC1 (centres unmarked) [Example 78, 2-(2,6-dioxopiperidin-3-yl)-5-(4-(2-(1-(4-((1-isopropyl-2-methyl-1H-imidazo[4,5-c]pyridin-6-yl)amino)pyrimidin-2-yl)-4-methoxypiperidin-4-yl)ethyl)piperazin-1-yl)isoindoline-1,3-dione]	–	–	–	–	–	5600 nM	–	5700 nM	25 nM	250 nM	C (>80% EGFR protein remaining after 72 hours of incubation with the test compound at a concentration of 300 nM)	25000 nM	C (>80% EGFR protein remaining after 72 hours of incubation with the test compound at a concentration of 300 nM)
COC1CCN(c2nccc(Nc3cc4c(cn3)nc(COCCN3CCN(CCOc5ccc6c(c5)C(=O)N(C5CCC(=O)NC5=O)C6=O)CC3)n4C(C)C)n2)CC1 (centres unmarked) [Example 76, 2-(2,6-dioxopiperidin-3-yl)-5-(2-(4-(2-((1-isopropyl-6-((2-(4-methoxypiperidin-1-yl)pyrimidin-4-yl)amino)-1H-imidazo[4,5-c]pyridin-2-yl)methoxy)ethyl)piperazin-1-yl)ethoxy)isoindoline-1,3-dione]	–	–	–	–	–	14000 nM	–	17000 nM	36 nM	360 nM	C (>80% EGFR protein remaining after 72 hours of incubation with the test compound at a concentration of 300 nM)	8600 nM	C (>80% EGFR protein remaining after 72 hours of incubation with the test compound at a concentration of 300 nM)
Cc1ncsc1-c1ccc([C@H](C)NC(=O)[C@H]2C[C@H](O)CN2C(=O)[C@@H](NC(=O)CN2CCN(CCCOCC#Cc3cccc4c3C(=O)N(C(C(=O)Nc3nccs3)c3cc(F)ccc3O)C4)CC2)C(C)(C)C)cc1 (some centres unmarked) [compound 90]	–	–	–	–	–	3400 nM	–	1300 nM	690 nM	740 nM	C (>80% EGFR protein remaining after 72 hours of incubation with the test compound at a concentration of 300 nM)	29000 nM	C (>80% EGFR protein remaining after 72 hours of incubation with the test compound at a concentration of 300 nM)
Cc1ncsc1-c1ccc(CNC(=O)[C@@H]2C[C@@H](O)CN2C(=O)[C@@H](NC(=O)CCCCCOCCCCOCCCCOc2cc3ncnc(Nc4ccc(F)c(Cl)c4)c3cc2NC(=O)/C=C/CN(C)C)C(C)(C)C)cc1 [Example 66, (2S,4R)-1-((S)-2-(6-(4-(4-((4-((3-chloro-4-fluorophenyl)amino)-6-((E)-4-(dimethylamino)but-2-enamido)quinazolin-7-yl)oxy)butoxy)butoxy)hexanamido)-3,3-dimethylbutanoyl)-4-hydroxy-N-(4-(4-methylthiazol-5-yl)benzyl)pyrrolidine-2-carboxamide]	B (≤80% and >50% EGFR protein remaining after 72 hours of incubation with the test compound at a concentration between 300 nM and 10 nM)	A (≤50% EGFR protein remaining after 72 hours of incubation with the test compound at a concentration between 300 nM and 10 nM)	–	–	–	–	–	–	–	–	A (≤50% EGFR protein remaining after 72 hours of incubation with the test compound at a concentration between 300 nM and 10 nM)	6600 nM	C (>80% EGFR protein remaining after 72 hours of incubation with the test compound at a concentration of 300 nM)
